{"source": "BindingDB's records for doi:10.1016/0960-894X(96)00069-8", "about": "(1996)", "target": "Carbonic anhydrase 2 (Homo sapiens, UniProt P00918)", "assay": "Kinetic constant for binding human carbonic anhydrase II ([…])", "conditions": "read-out: kon (M-1-s-1)", "data": [{"compound": "NS(=O)(=O)c1ccc(C(=O)NCC(=O)O)cc1", "note": "[(4-Sulfamoyl-benzoylamino)-acetic acid]", "values": [{"measurement": "kon", "result": "3.61e+07", "unit": "M⁻¹ s⁻¹"}]}]}
